Measured values as given in US20210284621A1 (priority 2018, published 2021).
Where two headings read alike, the source gives them in different places.

Experiments:
CB1 receptor [1] = molecular target: T1, CB1 receptor (Homo sapiens, UniProt P21554); assay: cAMP Assay #1: CB1 adenylylcyclase assay in CHO cells; type: cell-based; design: expressed in transfected cells; host or cells: CHO cells
Experimental: (§1) Compounds of the invention were assayed in an adenylylcyclase assay to determine agonist activity on the CB1 and CB2 receptors, the results of which are provided in Table 4. Exemplary methods for the adenylylcyclase assay can be found in the literature, for example, in Rhee, M-H., et al. Cannabinol Derivatives: Binding to Cannabinoid Receptors and Inhibition of Adenylylcyclase. J Med Chem. 40: 3228-3233 (1997).
CB1 Activity as determined by Adenylylcyclase Assay: CB1 receptor agonist activity was measured by measuring cAMP production. A compound of the invention was incubated with CHO cells expressing human recombinant CB1 for 20 minutes at 37° C.
(§2) Determination of EC50 values: The EC50 values (concentration producing a half-maximal response) were determined by non-linear regression analysis of the concentration-response curves generated with mean replicate values using Hill equation curve fitting: Y=D+[(A−D)/(1+(C/C50)^nH)], where Y=response, A=left asymptote of the curve, D=right asymptote of the curve, C=compound concentration, and C50=EC50, and nH=slope factor. This analysis was performed using software developed at Cerep (Hill software) and validated by comparison with data generated by the commercial software SigmaPlot® 4.0 for Windows® (© 1997 by SPSS Inc.).

CB1 receptor [2] = molecular target: T1, CB1 receptor; assay: cAMP Assay #2: Hit Hunter cAMP assay, Gi-coupled agonist activity, CB1; type: cell-based; design: host or cells: PathHunter cell lines
Experimental: (§3) Compounds of the invention were assayed in the Hit Hunter® cAMP assay to determine Gi-coupled agonist activity on the CB1 and CB2 receptors, the results of which are provided in Table 5.
(§4) The Hit Hunter® cAMP assay monitors the activation of a GPCR via Gi and […] secondary messenger signaling in a homogenous, non-imaging assay format using a technology developed by DiscoverX called Enzyme Fragment Complementation (EFC) with β-galactosidase (β-Gal) as the functional reporter. […] ED is fused to cAMP and in the assay competes with cAMP generated by cells for binding to a cAMP-specific antibody. Active β-Gal is formed by complementation of exogenous EA to any unbound ED cAMP. Active enzymes can then convert a chemiluminescent substrate, generating an output signal detectable on a standard microplate reader.
(§5) cAMP Hunter cell lines were expanded from freezer stocks according to standard procedures. Cells were seeded in a total volume of 20 μL into white walled, 384-well microplates and incubated at 37° C. for the appropriate time prior to testing. cAMP modulation was determined using the DiscoverX Hit Hunter cAMP XS+ assay. For Gi agonist activity determination, cells were incubated with sample in the presence of EC80 forskolin to induce response (20 μM and 25 μM in the CB1 and CB2 assays, respectively). Media was aspirated from cells and replaced with 15 μL 2:1 HBSS/10 mM HEPES:cAMP XS+Ab reagent.
(§6) Intermediate dilution of sample stocks was performed to generate 4× sample in assay buffer. 5 μL of 4× compound was added to cells and incubated at 37° C. or room temperature for 30 or 60 minutes. Final vehicle concentration was 1%. Assay signal was generated through incubation with 20 μL cAMP XS+ED/CL lysis cocktail for one hour at room temperature. Microplates were read following signal generation with a PerkinElmer Envision™ instrument for chemiluminescent signal detection. Compound activity was analyzed using CBIS data analysis suite (Chem Innovation, CA). For agonist assays, percentage activity was calculated using the following formula: % Activity=100%×(1−(mean RLU of test sample−mean RLU of Max control ligand)/(mean RLU of vehicle control−mean RLU of Max control ligand). Control ligand was the non-selective CB1/CB2 agonist CP55,940.

CB1 receptor [3] = molecular target: T1, CB1 receptor; assay: CB1 competitive radioligand binding assay ([3H] SR141716A); design: expressed in transfected cells; host or cells: Chem-1 cells; conditions: for inhibition at 0.5 µM: 0.5 μM compound, 2.0 nM [3H] SR141716A, 90 min 37° C.
How it was run: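 Chem-1 cells expressing human recombinant CB1 incubated 90 min at 37° C with 2.0 nM [3H]SR141716A and compound at 0.5 μM (1% DMSO) in HEPES pH 7.4 buffer with MgCl2, CaCl2, 0.2% BSA. Read-out is % inhibition of radioligand binding.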

CB2 receptor [4] = molecular target: T2, CB2 receptor (Homo sapiens, UniProt P34972); assay: CB2 competitive radioligand binding assay ([3H] WIN-55,212-2); design: expressed in transfected cells; host or cells: CHO-K1 cells; conditions: for inhibition at 0.05 µM: 0.05 μM compound, 2.4 nM [3H] WIN-55,212-2, 90 min 37° C.; for Fold Selectivity (CB1/CB2): Table 2, ratio of Ki CB1/CB2
T2 sequence (P34972 whole entry): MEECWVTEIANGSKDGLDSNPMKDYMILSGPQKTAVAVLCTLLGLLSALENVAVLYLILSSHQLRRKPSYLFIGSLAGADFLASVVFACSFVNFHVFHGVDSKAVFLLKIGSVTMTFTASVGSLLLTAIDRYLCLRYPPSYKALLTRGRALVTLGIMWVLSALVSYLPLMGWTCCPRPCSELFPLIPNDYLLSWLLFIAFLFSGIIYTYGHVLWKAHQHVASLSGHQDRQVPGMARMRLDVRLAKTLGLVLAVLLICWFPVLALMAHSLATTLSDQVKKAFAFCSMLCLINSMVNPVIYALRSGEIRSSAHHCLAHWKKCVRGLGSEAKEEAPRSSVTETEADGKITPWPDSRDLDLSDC
How it was run: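 CHO-K1 cells expressing human recombinant CB2 were incubated with compound (0.05 μM, 1% DMSO) and 2.4 nM [3H]WIN-55,212-2 in 20 mM HEPES pH 7.0, 0.5% BSA for 90 min at 37 °C. Percent inhibition of radioligand binding was reported.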

CB2 receptor [5] = molecular target: T2, CB2 receptor; assay: cAMP Assay #1: CB2 adenylylcyclase assay in CHO cells; type: cell-based; design: expressed in transfected cells; host or cells: CHO cells
Experimental: as §1
CB2 Activity as determined by Adenylylcyclase Assay: CB2 receptor agonist activity was measured by measuring cAMP production. A compound of the invention was incubated with CHO cells expressing human recombinant CB2 for 10 minutes at 37° C.
as §2

CB1 receptor [6] = molecular target: T1, CB1 receptor; assay: cell-based; design: host or cells: PathHunter cell lines
CB2 receptor [7] = molecular target: T2, CB2 receptor; assay: cell-based; design: host or cells: cAMP Hunter cell lines; conditions: PathHunter agonist mode; read-out: CB2 Activity (β-Arrestin)
How it was run: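 PathHunter β-Arrestin enzyme fragment complementation cells, EA-tagged β-Arrestin and PK-tagged receptor, exposed to compound for 90 to 180 minutes at 37° C. or room temperature, 1% vehicle. Chemiluminescence read 1 h after detection reagent; agonist % activity relative to vehicle and MAX control ligand.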

CB2 receptor [8] = molecular target: T2, CB2 receptor; assay: cAMP Assay #2: Hit Hunter cAMP assay, Gi-coupled agonist activity, CB2; type: cell-based; design: host or cells: cAMP Hunter cell lines; conditions: for CB2 fold selectivity: CB1 EC50 / CB2 EC50
Experimental: as §3, §4, §5, §6

[9] = PathHunter agonist mode, read-out: CB1 Activity (β-Arrestin)
[10] = CHO cells, 20 min 37° C., relative to 10 nM CP 55940, read-out: CB1 Activity EC50 (cAMP)
[11] = Hit Hunter cAMP, 20 μM forskolin, control ligand CP55,940, read-out: CB1, EC50
[12] = Table 2, read-out: CB1 Binding Ki
[13] = Table 2, read-out: CB2 Binding Ki
[14] = CHO cells, 10 min 37° C., relative to 100 nM WIN 55212-2, read-out: CB2 Activity EC50 (cAMP)
[15] = Hit Hunter cAMP, 25 μM forskolin, control ligand CP55,940, read-out: CB2, EC50

T1 sequence (P21554 whole entry): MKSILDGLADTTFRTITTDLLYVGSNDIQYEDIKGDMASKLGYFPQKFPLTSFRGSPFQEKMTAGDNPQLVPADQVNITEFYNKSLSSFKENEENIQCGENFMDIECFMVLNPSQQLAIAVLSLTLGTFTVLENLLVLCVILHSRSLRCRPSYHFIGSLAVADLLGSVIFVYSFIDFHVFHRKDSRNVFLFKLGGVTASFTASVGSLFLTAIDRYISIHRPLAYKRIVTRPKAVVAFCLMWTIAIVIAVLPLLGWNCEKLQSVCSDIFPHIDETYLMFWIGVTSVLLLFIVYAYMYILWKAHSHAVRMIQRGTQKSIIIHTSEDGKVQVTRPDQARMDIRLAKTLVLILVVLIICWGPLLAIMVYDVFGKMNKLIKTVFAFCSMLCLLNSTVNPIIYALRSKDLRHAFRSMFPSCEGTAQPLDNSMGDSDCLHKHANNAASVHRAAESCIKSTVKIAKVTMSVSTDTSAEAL

Compound | EC50 (CB1 receptor [1]) | EC50 (CB1 receptor [2]) | Ki (CB1 receptor [3]) | inhibition at 0.5 µM (CB1 receptor [3]) | Ki (CB2 receptor [4]) | inhibition at 0.05 µM (CB2 receptor [4]) | Fold Selectivity (CB1/CB2) (CB2 receptor [4]) | EC50 (CB2 receptor [5]) | EC50 (CB1 receptor [6]; [9]) | EC50 (CB2 receptor [7]) | EC50 (CB2 receptor [8]) | CB2 fold selectivity (CB2 receptor [8]; Hit Hunter cAMP) | EC50 (CB1 receptor [1]; [10]) | EC50 (CB1 receptor [2]; [11]) | Ki (CB1 receptor [3]; [12]) | Ki (CB2 receptor [4]; [13]) | EC50 (CB2 receptor [5]; [14]) | EC50 (CB2 receptor [8]; [15]) | EC50 (CB1 receptor [6])
CCCCCCC(C)(C)c1cc(O)c2c(c1)OC(C)(C)[C@@H]1CC=C(C(=O)NCCO)C[C@@H]21 [Compound 5, (6aR,10aR)-1-Hydroxy-N-(2-hydroxyethyl)-6,6-dimethyl-3-(2-methyloctan-2-yl)-6a,7,10,10a-tetrahydro-6H-benzo[c]chromene-9-carboxamide] | < 3 nM | 32.2 nM | 350 nM | 49% | 28 nM | 57% | 12.6 | 3.3 nM | 620 nM | 520 nM | 3.9 nM | 8.2 | – | – | – | – | – | – | –
CCCCCCC(C)(C)c1cc(O)c2c(c1)OC(C)(C)[C@@H]1CC=C(C(=O)NC3CC3)C[C@@H]21 [Compound 6, (6aR,10aR)—N-Cyclopropyl-1-hydroxy-6,6-dimethyl-3-(2-methyloctan-2-yl)-6a,7,10,10a-tetrahydro-6H-benzo[c]chromene-9-carboxamide] | < 3 nM | 4.7 nM | 45 nM | 64% | 3.9 nM | 98% | 12 | < 3 nM | 160 nM | 210 nM | 0.8 nM | 6.0 | – | – | – | – | – | – | –
CCCCCCC(C)(C)c1cc(O)c2c(c1)OC(C)(C)[C@@H]1CC=C(C(=O)NCCCO)C[C@@H]21 [Compound 13, (6aR,10aR)-1-Hydroxy-N-(3-hydroxypropyl)-6,6-dimethyl-3-(2-methyloctan-2-yl)-6a,7,10,10a-tetrahydro-6H-benzo[c]chromene-9-carboxamide] | – | – | – | 49% | – | 68% | 34 | – | 787 nM | 807 nM | – | 26.5 | 4.6 nM | 66.2 nM | 420 nM | 12.4 nM | 3.1 nM | 2.5 nM | –
CCCCCCC(C)(C)c1cc(O)c2c(c1)OC(C)(C)[C@@H]1CC=C(C(=O)N[C@H](C)CCO)C[C@@H]21 [Compound 14, (6aR,10aR)-1-Hydroxy-N—((R)-4-hydroxybutan-2-yl)-6,6-dimethyl-3-(2-methyloctan-2-yl)-6a,7,10,10a-tetrahydro-6H-benzo[c]chromene-9-carboxamide] | – | – | – | 25% | – | 47% | 22 | – | > 3000 nM | 8 nM | – | 115.2 | 10 nM | 470 nM | 1230 nM | 56 nM | 9.7 nM | 4.1 nM | –
CCCCCCC(C)(C)c1cc(O)c2c(c1)OC(C)(C)[C@@H]1CC=C(C(=O)NCC(O)CO)C[C@@H]21 (stereo partly drawn) [Compound 24, (6aR,10aR)-N-(2,3-Dihydroxypropyl)-1-hydroxy-6,6-dimethyl-3-(2-methyloctan-2-yl)-6a,7,10,10a-tetrahydro-6H-benzo[c]chromene-9-carboxamide] | – | – | – | 44% | – | 60% | 35 | – | > 3000 nM | 2 nM | – | 63.5 | 13 nM | 223 nM | 1930 nM | 55 nM | 2.4 nM | 3.5 nM | –
CCCCCCC(C)(C)c1cc(O)c2c(c1)OC(C)(C)[C@@H]1CC=C(C(=O)OC)C[C@@H]21 [Compound 28, Methyl (6aR,10aR)-1-hydroxy-6,6-dimethyl-3-(2-methyloctan-2-yl)-6a,7,10,10a-tetrahydro-6H-benzo[c]chromene-9-carboxylate] | 8.2 nM | – | 699 nM | 74% | 32 nM | 77% | 22 | 59 nM | – | 1.7 nM | – | – | – | – | – | – | – | – | 654 nM
CCCCCCC(C)(C)c1cc(OC)c2c(c1)OC(C)(C)[C@@H]1CC=C(C(=O)O)C[C@@H]21 [Compound 34, (6aR,10aR)-1-methoxy-6,6-dimethyl-3-(2-methyloctan-2-yl)-6a,7,10,10a-tetrahydro-6H-benzo[c]chromene-9-carboxylic acid] | > 300 nM | – | > 3000 nM | – | > 3000 nM | – | – | > 300 nM | – | > 3000 nM | – | – | – | – | – | – | – | – | > 3000 nM
CC(C)(c1ccccc1)c1cc(O)c2c(c1)OC(C)(C)[C@@H]1CC=C(C(=O)O)C[C@@H]21 [Compound 35, (6aR,10aR)-1-Hydroxy-6,6-dimethyl-3-(2-phenylpropan-2-yl)-6a,7,10,10a-tetrahydro-6H-benzo[c]chromene-9-carboxylic acid] | > 300 nM | – | > 3000 nM | – | > 3000 nM | – | – | > 300 nM | > 3000 nM | > 3000 nM | – | – | – | – | – | – | – | – | –
